≈ marks a conversion by molar mass, not a printed value. Residues, ends and D or L forms follow the SMILES beside them. Some results are limits rather than exact numbers.

The MIC is the least concentration at which growth counts as inhibited. The low end stands for a more susceptible organism, the high end for a less susceptible organism. As a reminder, the IC50 is the concentration needed to halve the response being measured. What is called Cmax is the peak of the concentration-time curve. Usually AUC(0-t) stands for the area under the concentration-time curve up to a stated or last time point. A high value points to more exposure.

A short description of data set [1]: Kinetic aqueous solubility of the compound by charged aerosol detection method. The format is physicochemical. Particulars: buffer; read-out: Kinetic_solubility.
Data set [2] is described as follows: Intrinsic clearance in mouse liver microsomes. It counts as ADME, microsome.
The subject of data set [3] is Mycobacterium tuberculosis. The data set can be described thus: Antimycobacterial activity against Mycobacterium tuberculosis H37Rv incubated for 6 days under shaking condition by resazurin dye based fluorescence assay. Particulars: 144 h. The format is functional. A general note: Alamar Blue is a resazurin reagent that responds to reducing activity.
A short description of data set [4]: Intrinsic clearance in human liver microsomes. It counts as ADME, microsome.
The nature of data set [5]: Permeability of the compound by PAMPA. The format is ADME. Particulars: read-out: permeability. (In general: In PAMPA a lipid-coated filter parts donor from acceptor wells.)
The next data set has as its system HepG2. The data set can be described thus: Cytotoxicity against human HepG2 cells after 48 hrs by CellTiter-Glo luminescence assay. Particulars: HepG2, 48 h. The format is cell-based. (In general: Cellular ATP, detected with luciferase, serves as a proxy for viable cell number.)
Data set [6] is described as follows: Cmax in C57BL/6J mouse at 25 mg/kg, ip. The format is ADME, organism-based. The arrangement: dose 25 mg/kg, route intraperitoneal. Particulars: in vivo.
Data set [7] in a line: Cmax in C57BL/6J mouse at 5 mg/kg, ip. It counts as ADME, organism-based. On the set-up: dose 5 mg/kg, route intraperitoneal. Particulars: in vivo.
A short description of data set [8]: AUC (0 to 6 hrs) in C57BL/6J mouse at 5 mg/kg, ip. Particulars: in vivo. On the set-up: dose 5 mg/kg, time < 6 hr, route intraperitoneal. The format is ADME, organism-based.
Data set [9] is described as follows: Intrinsic clearance in mouse liver microsomes at […] pretreated for 45 mins followed by NADPH addition by LC-MS/MS analysis. The format is ADME, microsome.
In data set [10] the test system is Mus musculus. The data set can be described thus: Dose normalized AUC (0 to 6 hrs) in C57BL/6J mouse at 25 mg/kg, ip. It counts as ADME, organism-based. Particulars: in vivo.
Data set [11] can be described thus: Kinetic aqueous solubility of the compound at pH 7.4 phosphate buffered saline after 1 hr by CLND method. Particulars: read-out: Kinetic_solubility. It counts as physicochemical.
Data set [12] relates to Mus musculus. The data set can be described thus: Toxicity in C57BL/6J mouse assessed as body weight loss at 25 mg/kg, ip after 24 hrs by Irwin test. It counts as organism-based. Particulars: in vivo.
The nature of data set [13]: AUC (0 to 6 hrs) in C57BL/6J mouse at 25 mg/kg, ip. The format is ADME, organism-based. The arrangement: dose 25 mg/kg, time < 6 hr, route intraperitoneal. Particulars: in vivo.
The nature of data set [14]: Intrinsic clearance in human liver microsomes at […] pretreated for 45 mins followed by NADPH addition by LC-MS/MS analysis. The format is ADME, microsome.
The test system of data set [15] is Mycobacterium tuberculosis. Nature of the data set: Antimycobacterial activity against Mycobacterium tuberculosis H37Rv infected in human THP1 cells treated prior to infection measured after 4 days by luciferase reporter gene assay. The format is functional, organism-based. Particulars: THP-1, 96 h.
Data set [16] deals with Mus musculus. The data set can be described thus: Dose normalized AUC (0 to 6 hrs) in C57BL/6J mouse at 5 mg/kg, ip. The format is ADME, organism-based. Particulars: in vivo.
For data set [17], the system named is Mus musculus. The data set can be described thus: Toxicity in C57BL/6J mouse assessed as behavioral changes at 5 to 25 mg/kg, ip by Irwin test. Particulars: in vivo. It counts as organism-based.
For data set [18], the system named is Mycobacterium tuberculosis. The data set can be described thus: Antimycobacterial activity against Mycobacterium tuberculosis H37Rv infected in C57BL/6J mouse assessed as log10 CFU reduction in bacterial lung count at 5 mg/kg, ip administered once daily for 8 days measured post last dose relative to control. It counts as functional.
The nature of data set [19]: Permeability of the compound at pH 7.4 at […] incubated for 3 hrs under shaking condition by HPLC method. Particulars: not told, read-out: permeability. The format is ADME.
In data set [20] the test system is Mycobacterium tuberculosis. Nature of the data set: Antimycobacterial activity against Mycobacterium tuberculosis H37Rv infected in C57BL/6J mouse assessed as log10 CFU reduction in bacterial lung count at 30 mg/kg, po administered once daily for 8 days measured post last dose relative to control. It counts as functional.
Data set [21] in a line: Kinetic aqueous solubility of the compound by CLND method. The format is physicochemical. Particulars: buffer; read-out: Kinetic_solubility.

For the compound `CC(C)C[C@@H]1NC(=O)[C@H](Cc2c[nH]c3ccccc23)NC(=O)[C@@H](CCCN)NC(=O)[C@H](CC(=O)NCc2ccccc2)NC(=O)[C@H](C(C)C)NC(=O)[C@@H](CC(C)C)NC1=O`, the solubility kinetic in [1] is more than 353 µM. The CLH in data set [2] was determined as 0.73 mL/min/g; in data set [4], 0.88 mL/min/g. In data set [3], the minimal inhibitory concentration (MIC) was 10 µM (≈ 8.3 µg/mL). Besides, the Papp in data set [5] is less than 1 ×10⁻⁶ cm/s. In addition, the IC50 in the data set with HepG2 amounted to 39.8 µM.

For `CC[C@H](C)[C@@H]1NC(=O)[C@@H](CC(C)C)NC(=O)[C@H](CC(C)C)NC(=O)[C@H](Cc2c[nH]c3ccccc23)NC(=O)[C@@H](CCCNC(=N)N)NC(=O)[C@H](CC(N)=O)NC1=O` (HELM PEPTIDE1{I.N.[dR].W.L.[dL]}$PEPTIDE1,PEPTIDE1,1:R1-6:R2$$$V2.0), the Cmax in data set [6] worked out at 3260 ng/mL; in [7], 1470 ng/mL. For the same compound, the figures for the AUC(0-t) at 6 h in data set [8] and in data set [13] were 6290 ng·h/mL and 14700 ng·h/mL, respectively. The results for the CLH in data set [9] and in data set [14] were 1.01 mL/min/g and 7.44 mL/min/g, respectively. Moreover, the values for the AUC/dose in the data set with Mus musculus [10] and in the data set with Mus musculus [16] were 586.1 ng·h/mL/mg/kg and 1258.6 ng·h/mL/mg/kg, respectively. Moreover, the solubility kinetic at 1 h in data set [11] is more than 238 µM. In addition, the Activity was 10% in the data set with Mus musculus [12] and “Non-Toxic” in the data set on Mus musculus [17]. Besides, in [3], the MIC came to 0.6 µM (≈ 0.478 µg/mL). The IC50 was found to be 50.1 µM in the data set with HepG2 and 0.2 µM in data set [15]. The FC in [18] is reported as -0.2.

Take `CC[C@H](C)[C@@H]1NC(=O)[C@@H](CC(C)C)NC(=O)[C@H](CC(C)C)NC(=O)[C@H](Cc2c[nH]c3ccccc23)NC(=O)[C@@H](CCCN)NC(=O)[C@H](CC(N)=O)NC1=O`: the results for the Cmax in data set [6] and in data set [7] were 6330 ng/mL and 2170 ng/mL, respectively. Moreover, the results for the AUC(0-t) at 6 h in data set [8] and in data set [13] were 4780 ng·h/mL and 26600 ng·h/mL, respectively. For the same compound, the AUC/dose came out at 1063.8 ng·h/mL/mg/kg with Mus musculus [10] and 957 ng·h/mL/mg/kg in the data set on Mus musculus [16]. Moreover, the solubility kinetic at 1 h in data set [11] is more than 235 µM. Besides, the Activity in the data set with Mus musculus [12] is on record as 10%; in the data set with Mus musculus [17] it was “Non-Toxic”. The Papp at 3 h in data set [19] is less than 1 ×10⁻⁶ cm/s. Moreover, the CLH was less than 0.48 mL/min/g in data set [2] and 1.87 mL/min/g in [14]. In addition, the MIC in data set [3] came out at 1.1 µM (≈ 0.829 µg/mL). Moreover, the IC50 is 50.1 µM in the data set on HepG2 and 0.8 µM in [15]. In addition, the FC in data set [18] is recorded as -0.2.

For `COc1c(N2C[C@@H]3CCCN[C@@H]3C2)c(F)cc2c(=O)c(C(=O)O)cn(C3CC3)c12` [MOXIFLOXACIN], the FC in data set [20] was 3.4.

Regarding `CC[C@@H](C)[C@@H]1NC(=O)[C@@H](CC(C)C)NC(=O)[C@H](CC(C)C)NC(=O)[C@H](Cc2c[nH]c3ccccc23)NC(=O)[C@@H](CCCN)NC(=O)[C@H](CC(N)=O)NC1=O`, the CLH in data set [2] is less than 0.48 mL/min/g; in data set [4] it was 0.87 mL/min/g. In data set [3], this compound displayed an MIC of 1.1 µM (≈ 0.829 µg/mL). Also, the solubility kinetic in [21] was found to be 177 µM (≈ 133 µg/mL). For the same compound, the Papp in [5] is less than 1 ×10⁻⁶ cm/s. Also, the half-inhibitory concentration (IC50) in the data set on HepG2 stood at 50.1 µM; in [15] it was 0.8 µM.

As for `CC(C)C[C@@H]1NC(=O)[C@H](Cc2c[nH]c3ccccc23)NC(=O)[C@@H](CCCN)NC(=O)[C@H](CC(N)=O)NC(=O)[C@H](C(C)C)NC(=O)[C@@H](CC(C)C)NC1=O` (HELM PEPTIDE1{[NCCC[C@@H](N[*:1])C(=O)[*:2]].W.L.[dL].V.N}$PEPTIDE1,PEPTIDE1,1:R1-6:R2$$$V2.0), the CLH in [9] was less than 0.5 mL/min/g; in data set [14], 0.97 mL/min/g. For the same compound, the solubility kinetic at 1 h in [11] worked out at 204 µM (≈ 151 µg/mL). Also, the Papp at 3 h in [19] was less than 0.65 ×10⁻⁶ cm/s. In data set [3], this compound yielded an MIC of 0.6 µM (≈ 0.444 µg/mL). In addition, the results for the IC50 (with HepG2; in [15]) were 50.1 µM and 1.26 µM, respectively.

For `CC(C)C[C@@H]1NC(=O)[C@H](Cc2c[nH]c3ccccc23)NC(=O)[C@@H](CCCN)NC(=O)[C@H](CC(=O)N2CCC(Oc3ccc(OC(F)(F)F)cc3)CC2)NC(=O)[C@H](C(C)C)NC(=O)[C@@H](CC(C)C)NC1=O`, the solubility kinetic at 1 h in data set [11] stood at 20 µM (≈ 19.7 µg/mL). Besides, the CLH in [2] was less than 0.48 mL/min/g; in data set [4], 0.4 mL/min/g. The same compound came in with an MIC in data set [3] of more than 80 µM. The Papp in data set [5] worked out at 8.7 ×10⁻⁶ cm/s. The IC50 in the data set with HepG2 amounted to 31.6 µM.

With `CC(C)C[C@@H]1NC(=O)[C@H](Cc2c[nH]c3ccccc23)NC(=O)[C@@H](CCCN)NC(=O)[C@H](CC(=O)N2CCCCC2)NC(=O)[C@H](C(C)C)NC(=O)[C@@H](CC(C)C)NC1=O`, the solubility kinetic in data set [1] amounted to 107 µM (≈ 86.5 µg/mL). Further, the CLH is less than 0.48 mL/min/g in data set [2] and 1.9 mL/min/g in data set [4]. The same compound yielded an MIC in [3] of 20 µM (≈ 16.2 µg/mL). The Papp in [5] was less than 1 ×10⁻⁶ cm/s. Further, in the data set on HepG2, the IC50 was more than 100 µM.

Compound `CC(C)C[C@@H]1NC(=O)[C@H](Cc2c[nH]c3ccccc23)NC(=O)[C@@H](CCCN)NC(=O)[C@H](CC(=O)NC2CCCCC2)NC(=O)[C@H](C(C)C)NC(=O)[C@@H](CC(C)C)NC1=O` yielded an MIC in [3] of 5 µM (≈ 4.11 µg/mL). This compound displayed an IC50 in the data set with HepG2 of 50.1 µM.

In the case of `CCCCNC(=O)C[C@@H]1NC(=O)[C@H](C(C)C)NC(=O)[C@@H](CC(C)C)NC(=O)[C@H](CC(C)C)NC(=O)[C@H](Cc2c[nH]c3ccccc23)NC(=O)[C@@H](CCCN)NC1=O`, the solubility kinetic in data set [1] was 146 µM (≈ 116 µg/mL). In addition, the CLH was 1.19 mL/min/g in [2] and 1.69 mL/min/g in data set [4]. Also, it took 10 µM (≈ 7.96 µg/mL) to inhibit growth in [3] (MIC). Also, the Papp in [5] is less than 1 ×10⁻⁶ cm/s. This compound displayed a 50% inhibitory concentration (IC50) in the data set on HepG2 of 63.1 µM.

For the origin of these results see ChEMBL document CHEMBL4229459, “An efficient synthetic route for preparation of antimycobacterial wollamides and evaluation of their in vitro and in vivo efficacy” (Bioorg Med Chem Lett, 2018).
